# Measurements as given in patent US20140045908A1, “HSP90 INHIBITORY COMPOUNDS IN TREATING JAK/STAT SIGNALING-MEDIATED CANCERS” (SYNTA PHARMACEUTICALS CORP., priority 2011, published 2014).
# Key:
# HEL92.1.7 cells = assay: Flow cytometry cell cycle analysis; format: cell-based, human
# Method: HEL92.1.7 cells were plated at 0.5×10^6 cells/mL and treated as indicated. Cells were harvested and stained with propidium iodide using the BD Cycle TEST PLUS Reagent Kit (BD Biosciences, San Jose, Calif., USA) according to the manufacturer's instructions. Twenty thousand cells were analyzed for their DNA content using a FACS Caliber cytometer (BD Biosciences).
# [1] = test system: HEL92.1.7 cells (JAK2V617F); assay: HEL92.1.7 disseminated (orthotopic) leukemia survival model; format: in vivo
# Method: Beginning 1 day after tumor cell implantation, ganetespib was i.v. dosed at its HNSTD (25 mg/kg) on a five-times per week schedule for 3 weeks through day 19 ([…]). *P<0.0001; 2-sided log-rank test.
# (§1) Eight-week-old female immunodeficient CB-17/Icr-Prkdcscid/Crl (SCID) mice (Charles River Laboratories, Wilmington, Mass.) were maintained in a pathogen-free environment, and all in vivo procedures were approved by the Synta Pharmaceuticals Corp. Institutional Animal Care and Use Committee. For the MV4-11 model, tumor cells were subcutaneously implanted in SCID mice as previously described (34). Tumor volumes (V) were calculated by caliper measurements of the width (W), length (L), and thickness (T) of each tumor using the formula: V=0.5236 (LWT).
# For the HEL92.1.7 model, SCID mice were i.v. injected via the tail vein with 5×10^6 cells in phosphate-buffered saline (PBS) on day 0. Implanted animals were then randomized into groups of 10 and i.v. dosed via the tail vein at 10 mL/kg body weight with either vehicle or ganetespib formulated in 10/18 DRD. Animals were weighed daily and removed from the study at the first sign of hind limb paralysis, which occurred in 100% of vehicle-treated animals. Median overall survival was estimated using the Kaplan-Meier method and the log-rank test (2-sided) for statistical significance. Tumor cells were identified as either CD44- or CD54-positive cells within the CD45-negative population. Spinal column tumor burden was determined by quantitative image analysis with ImageJ software (Wayne Rasband, National Institute of Mental Health) of hematoxylin and eosin stained tissue sections.
# (§2) For both models, studies were conducted at the highest non-severely toxic doses (NHSTDs) of 150 mg/kg ganetespib one-time per week or 25 mg/kg ganetespib 5×/week for 3 weeks based on prior tolerability studies conducted in non-tumor bearing mice.
# [2] = test system: JAK2/STAT signaling in NCI-H1975 cells; assay: Western blot of JAK/STAT and Hsp90 client proteins in NCI-H1975 cells; format: cell-based, human; conditions: 24 h
# Method: NCI-H1975 cells were dosed with the indicated concentrations of ganetespib for 24 h and their cell lysates analyzed to determine JAK/STAT and Hsp90 client protein levels using the antibodies indicated.
# (§3) Cells were disrupted in lysis buffer (CST) and solubilized in 2% SDS. Xenograft tumors (average volume of 100-200 mm3) were excised, cut in half, and flash frozen in liquid nitrogen. Each tumor fragment was lysed in 0.5 mL of lysis buffer using a FastPrep-24 homogenizer and Lysing Matrix A (MP Biomedicals, Solon, Ohio, USA) and lysates clarified by centrifugation. Equal amounts of proteins were resolved by SDS-PAGE and immunoblotted with indicated antibodies. The antigen-antibody complex was visualized and quantitated using an Odyssey system (LI-COR, Lincoln, Nebr., USA).
# [3] = test system: JAK/STAT signaling in SET-2 cells; assay: Western blot of JAK/STAT signaling in SET-2 cells; format: cell-based, human; conditions: 24 h
# Method: SET-2 cells were dosed with the indicated concentrations of ganetespib or 17-AAG for 24 h and analyzed to determine JAK/STAT protein and target levels using the antibodies indicated.
# as §3
# MV4-11 xenografts = assay: MV4-11 acute myeloid leukemia xenograft model; format: in vivo, SCID mice
# Method: Mice bearing established MV4-11 xenografts (100-200 mm3, n=8 mice/group) were i.v. dosed (arrowheads) with ganetespib at either 25 or 150 mg/kg once weekly for 3 weeks, or at the HNSTD of 25 mg/kg five-times per week, as indicated. % T/C values are indicated to the right of each growth curve and the error bars are the s.e.m.
# as §1
# Animals with 100-200 mm^3 tumors were then randomized into treatment groups of 8 and i.v. dosed via the tail vein at 10 mL/kg body weight with either vehicle or ganetespib formulated in 10/18 DRD (10% DMSO, 18% Cremophor RH 40, 3.6% dextrose, 68.4% water). Tumor growth inhibition was monitored by tumor volume measurements twice weekly. As a measurement of in vivo efficacy, the % T/C value was determined from the change in average tumor volumes of each treated group relative to the vehicle-treated or itself in the case of tumor regression. Statistical significance was determined using a Kruskal-Wallis one-way ANOVA followed by the Tukey Test multiple comparison procedure.
# as §2
# [4] = test system: JAK/STAT target and cell cycle gene expression in HEL92.1.7 cells; assay: RNA expression profiling (RT-PCR, Affymetrix) in HEL92.1.7 cells; format: cell-based, human
# Method: HEL92.1.7 cells were treated with DMSO, P6 (100 or 1000 nM) or ganetespib (25 or 250 nM) for 4 h or 24 h, and total RNA extracted using Trizol (Invitrogen). RNA was purified with the RNeasy kit (Qiagen, Hilden, Germany) and converted to cDNA via an iScript kit (BioRad, Hercules, Calif., USA). Oligonucleotide primers were purchased from SABiosciences (Frederick, Md., USA). PCR was done with iQ SYBR Green Supermix (Bio-Rad), and levels of the tested genes were normalized to HPRT expression using the comparative Ct method.
# Biotinylated aRNA was generated by in vitro transcription using Affymetrix GeneChip Expression IVT labeling kit (Affymetrix, Santa Clara, Calif., USA). Fifteen micrograms of labeled aRNA was fragmented and hybridized to Affymetrix GeneChip Human Genome U133 Plus 2 arrays and scanned using a GeneChip Scanner (Affymetrix). Array data were analyzed with the Affymetrix Expression Console Software utilizing the MASS algorithm. In order to generate a threshold for identifying probe sets that have large differences between 1000 nM P6 (4 h) and 250 nM ganetespib (24 h) arrays and their controls in the absence of treatment replicates, data from four control arrays (DMSO only; two at 4 h, and two at 24 h) were used to create an expression level dependent fold-difference envelope that reflects the increasing measurement variability as expression level decreases. This envelope, used in lieu of a fixed fold-difference criteria, was formed by identifying the xth percentile expression-level difference (where x was large, typically 99.9%) at each mean expression level bin. To achieve this, data were used from the six possible comparisons from the four DMSO-only arrays. The resulting, smoothed threshold fold-difference envelope was then applied to the two compound-treated/control array pairs to identify those probe-sets that have large expression level differences between treatment and control. For hierarchical analysis, genes with greater than two fold changes in expression with 250 nM ganetespib were clustered using established algorithms in Cluster (49) and a subset visualized by TreeView.
smiles,measurement,setting,value
"CC(C)c1cc(-c2nnc(O)n2-c2ccc3c(ccn3C)c2)c(O)cc1O [ganetespib, 3-(2,4-dihydroxy-5-isopropyl-phenyl)-4-(1-methyl-indol-5-yl)-5-hydroxy-[1,2,4] triazole]",cell cycle distribution,HEL92.1.7 cells,"temporal G1 and G2/M arrest in HEL92.1.7 cells, with concomitant loss of S phase"
same,tumor cell burden in bone marrow and spinal cord (histological analysis),[1]; 25 mg/kg i.v. 5×/week,dramatically decreased tumor cell burden
same,median overall survival,"[1]; 25 mg/kg i.v. 5×/week through day 19, SCID mice",76.5 days
same,body weight (tolerability),"[1]; 25 mg/kg i.v. 5×/week, after 3 weeks of dosing",no significant loss of body weight
same,AKT and GSK3β activity,[2],Inactivation of AKT and GSK3β
same,EGFR expression,[2],dose dependent decrease in EGFR expression
same,JAK2 and phosphorylated STAT3 levels,[2],potent degradation of JAK2 and loss of phosphorylated STAT3 in a dose-dependent manner
same,levels of phosphorylated BAD,[2],concomitant reduction in the levels of phosphorylated BAD
same,concentration able to destabilize JAK2 sufficiently to result in loss of activated (phosphorylated) STAT3 and STAT5 expression,[3],50 nM
same,tumor regression,MV4-11 xenografts; 25 mg/kg i.v. 5×/week for 3 weeks,84%
same,tumor growth inhibition,MV4-11 xenografts; 25 or 150 mg/kg i.v. once weekly for 3 weeks,significant and dose dependent tumor growth inhibition
same,time tumor growth stayed suppressed once treatment was discontinued,MV4-11 xenografts; both dosing regimens,up to a week or more
same,expression of cell cycle-related genes,"[4]; 250 nM, 24 h",selectively altered the expression of a large set of genes involved in cell cycle-related activities
same,expression of heat shock protein genes,"[4]; 250 nM, 24 h",up-regulation of numerous heat shock protein genes
same,expression of JAK/STAT target genes (SOCS and PIM family members),"[4]; 4 hour P6 (1000 nM), 24 hour ganetespib (250 nM)",downregulated
